# Laboratory results taken from patent US20140179681A1, “METHODS AND COMPOSITIONS OF TARGETED DRUG DEVELOPMENT” (priority 2010, published 2014).
# pIC50: −log10 of the molar value. Where a name gives a salt, the structure may show the parent alone. Read-outs that look alike come from different tables or passages of the source.
# Tests used:
# [1] = tested on: epithelial carcinoma A431 cell line; test: MTT Cell Proliferation Assay, A431 cells; format: cell-based; conditions: for IC50: A-431, 72 h, Table 10, first of x/y(ratio): A431, three day treatment, unit not printed (doses in μM), read-out: MTT assay (first value); for MTT Assay IC50(A431/MDBK): ratio in parentheses: ratio MDBK IC50 / A431 IC50 (selectivity)
# Excerpt: (§1) The following example describes the MTT Cell Proliferation Assay.
# (§2) The MTT Cell Proliferation Assay is a colorimetric assay system that measures the reduction of the tetrazolium salt MTT (3-(4,5-dimethylthiazol-2-yl)-2,5-diphenyltetrazolium bromide) into insoluble formazan crystals, produced by the mitochondria of viable cells. […] The color can then be quantified by spectrophotometric means. Among the applications for the method are drug sensitivity, cytotoxicity, response to growth factors, and cell activation. The reduction of tetrazolium salts is now recognized as a safe, accurate alternative to radiometric testing.
# (§3) Two replicates on each cell plate and 2 duplicate plates gave 4 individual replicates of each concentration, in each cell line. Concentrations were diluted in 100% DMSO from 25 mM stocks.
# (§4) Twelve 96 well plates of each cell line were plated. Plating was done by dislodging cells as in passage protocol, counting on a hemocytometer, re-suspending in standard growth media, and plating using a multichannel pippetor.
# (§5) 16 μl of 25 mM stock+34 μl DMSO=8 mM starting concentrations, and serial diluted as with test compounds in same plate. […] Two replicates of each concentrations was run on each cell plate. All compound addition and cell treatments were done using aseptic technique under a laminar flow aseptic hood.
# (§6) Control: 0.5% DMSO in treatment media was used as the control.
# (§7) MTT dye (Thiazolyl Blue Tetrazolium Bromide, Sigma cat #M5655) stock was prepared in bulk and stored at 4° C. for use: 5 mgs/ml sterile PDS, shielded from light. 4 ul of this stock per 100 uls treatment media per well was used.
# (§8) Plates were incubated overnight prior to treatment, with treatment day=Day 0. Compound treatments were prepared prior to washing cells to minimize time cells were dry at room temperature after final aspiration. Compounds were diluted in 100% DMSO in 96 well polypropylene plates: 40 μl 25 mM stock+10 μl DMSO=20 mM; 20 μl of 20 mM+30 μl DMSO=8 mM; 20 μl of 8 mM+30 μl DMSO=3.2 mM; 20 μl of 3.2 mM+30 μl DMSO=1.3 mM; 20 μl of 1.3 mM+30 μl DMSO=0.51 mM.
# (§9) 5.0 μl/ml were added to treatment media, in sterile, 2.2 ml deep well plates=0.5% dmso final. Ten μl of each dmso concentration was added to 2.0 ml of treatment media and then mixed using a 1200 μl multichannel pipettor. Cell plates were treated from the deep well plates. Treatment media was standard growth media containing 0.5% FBS and standard additions. This reduced FBS concentration allowed for a slower growth rate in cells.
# (§10) Media was aspirated from cell plates, and washed with 200 μl/well sterile PBS. Aspirated PBS wash, and cell plates were treated with 200 μl of compound/treatment media per well, and incubated at 37° C., 5% CO2 for 3 days.
# (§11) Prior to harvesting, visual observations were made under an inverted microscope. Plates were harvested by: aspirating the growth media; adding back MTT dye/100 μl treatment media; and incubating plates at 37° C. for 1 hour. MTT dye was aspirated. 100 μl/well dmso was added, and then shaken on a Bellco plate shaker for 5 minutes, at 4.5 setting.
# (§12) Plates were read in a Tecan Sunrize UV plate reader, at 560 nm. Settings: Read mode, Outside Normal 2 sec; Shake settle time 3 sec. Data is reported as % inhibition, calculated for individual plates using control values from that plate.
# EGFR = target: T1, EGFR (Homo sapiens, UniProt P00533); test: EGFR in-cell Western (ICW) screening protocol (EGFR inhibition assay); format: cell-based; set-up: ICW 1 / ICW 2 / ICW Avg: unit not given here; conditions: for ICW assay: Table 10, % Inhibition of EGF dependent EGFR phosphorylation in A431 cells, compound 125 μM in assay; for ICW Avg / ICW 1 / ICW 2: ICW assay; for ICW Avg: average of runs 1 and 2; for ICW 1: run 1; for ICW 2: run 2
# T1 construct: host or cells: A431
# T1 sequence (P00533 25-1210): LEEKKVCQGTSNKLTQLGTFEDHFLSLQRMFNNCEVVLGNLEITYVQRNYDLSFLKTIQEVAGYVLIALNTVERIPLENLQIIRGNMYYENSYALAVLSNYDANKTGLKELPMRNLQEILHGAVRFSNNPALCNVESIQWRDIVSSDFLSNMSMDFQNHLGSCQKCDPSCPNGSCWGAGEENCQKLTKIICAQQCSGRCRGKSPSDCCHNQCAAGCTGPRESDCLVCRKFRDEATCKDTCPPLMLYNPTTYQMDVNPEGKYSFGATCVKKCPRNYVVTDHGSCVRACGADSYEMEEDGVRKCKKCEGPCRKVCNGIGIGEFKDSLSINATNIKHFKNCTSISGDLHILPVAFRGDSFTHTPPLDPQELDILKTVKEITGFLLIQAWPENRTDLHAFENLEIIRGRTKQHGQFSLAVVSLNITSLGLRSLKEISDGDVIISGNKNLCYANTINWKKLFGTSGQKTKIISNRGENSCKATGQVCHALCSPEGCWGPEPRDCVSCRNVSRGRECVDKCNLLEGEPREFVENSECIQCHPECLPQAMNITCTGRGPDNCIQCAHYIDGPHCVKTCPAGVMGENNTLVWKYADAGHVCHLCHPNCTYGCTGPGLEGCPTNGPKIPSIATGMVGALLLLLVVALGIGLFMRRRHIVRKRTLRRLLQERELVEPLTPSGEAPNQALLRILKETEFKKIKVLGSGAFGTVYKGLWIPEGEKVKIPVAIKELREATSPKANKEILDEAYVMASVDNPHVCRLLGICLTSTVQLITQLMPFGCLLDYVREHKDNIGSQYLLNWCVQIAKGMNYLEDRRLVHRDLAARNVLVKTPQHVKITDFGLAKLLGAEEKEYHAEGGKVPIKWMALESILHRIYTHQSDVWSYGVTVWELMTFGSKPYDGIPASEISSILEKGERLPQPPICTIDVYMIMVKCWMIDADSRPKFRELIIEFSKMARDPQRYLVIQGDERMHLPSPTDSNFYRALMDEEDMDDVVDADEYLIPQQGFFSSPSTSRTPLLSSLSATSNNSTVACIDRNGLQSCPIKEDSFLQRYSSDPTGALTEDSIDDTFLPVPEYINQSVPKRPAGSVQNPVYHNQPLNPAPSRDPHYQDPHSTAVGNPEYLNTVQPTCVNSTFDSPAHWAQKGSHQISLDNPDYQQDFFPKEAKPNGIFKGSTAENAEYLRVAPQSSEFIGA
# How it was run: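 In-cell Western read-out: fixed A431 cells were co-stained for total EGFR and phospho-EGFR (Tyr1173; some runs Tyr1045). Before fixation, cells were serum-starved for 2 h, exposed to compound for 4 h, then given EGF for 10 min, usually at 10 ng/ml final (6.6 or 12.5 ng/ml in some runs).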
# MDBK line = test: MTT Cell Proliferation Assay, MDBK cells; format: cell-based, bovine; conditions: for IC50: 72 h, Table 10, second of x/y(ratio): MDBK, three day treatment, unit not printed (doses in μM), read-out: MTT assay (second value)
# Excerpt: as §1, §2, §3, §4, §5, §6, §7, §8, §9, §10, §11, §12
# [2] = Homo sapiens, A-431, A431 cells, first value of cell, read-out: MTT Assay IC50(A431/MDBK): A431
# [3] = Bos taurus, MDBK, MDBK cells, second value of cell, read-out: MTT Assay IC50(A431/MDBK): MDBK
# [4] = Homo sapiens, A-431, first value of 'a/b (c)', taken as A431 cells, read-out: MTT Screen, first value of cell
# [5] = Bos taurus, MDBK, second value of 'a/b (c)', taken as MDBK cells, read-out: MTT Screen, second value of cell
SMILES,"pIC50 [1, 2]",MTT Assay IC50(A431/MDBK): ratio in parentheses [1],ICW Avg (EGFR),ICW 1 (EGFR),ICW 2 (EGFR),pIC50 (MDBK line; [3]),ICW Screen (ICW Inhibition) (EGFR),further results
CC(=O)c1ccc(NC(=S)Nc2ccc(S(=O)(=O)Nc3ccccc3C)cc2)cc1 [AD4-10700],,,,,,,,"IC50 ([1]; Homo sapiens): 14.7 µM; ICW assay (EGFR): 52.5996; IC50 (MDBK line; Bos taurus, MDBK): 14.3 µM"
COc1ccccc1-c1cc(=O)[nH]c(Nc2nc(C)c3cc(C)c(C)cc3n2)n1 [11746 + TFA],4.47,0.43,25.68,29.51,21.86,4.84,,
Cc1cc(NS(=O)(=O)c2ccc(NC(=S)NC(=O)/C=C/c3ccccc3)cc2)no1 [AD4-12273],,,,,,,33.104,"pIC50 ([1]; first value of 'a/b (c)', taken as A431 cells, read-out: MTT Screen, first value of cell): 4.50; pIC50 (MDBK line; second value of 'a/b (c)', taken as MDBK cells, read-out: MTT Screen, second value of cell): 4.37"
Cc1cc(C)cc(NS(=O)(=O)c2ccc(NC(=S)NC(=O)CCc3ccccc3)cc2)c1 [AD4-12139],,,,,,,41.23,"pIC50 [1, 4]: 4.73; pIC50 (MDBK line; [5]): 5.28"
CCc1ccc2nc(Nc3nc(C)c(CCC(C)C)c(=O)[nH]3)nc(C)c2c1 [compound 11462],4.84,3.19,77.32,77.14,77.49,4.33,,
CCOc1ccc2nc(Nc3nc(=O)cc(-c4ccccc4)[nH]3)nc(C)c2c1 [12608 + TFA],4.37,,42.36,46.64,38.07,4.77,,
COc1cc(NS(=O)(=O)c2ccc(NC(=S)NC(=O)/C=C/c3cccs3)cc2)nc(OC)n1 [AD4-11881],,,,,,,34.08,"pIC50 [1, 4]: 4.20; pIC50 (MDBK line; [5]): 4.33"
CCCC(=O)NC(=S)Nc1ccc(S(=O)(=O)NCCc2ccccc2)cc1 [AD4-10612],,,,,,,30.841,"pIC50 [1, 4]: 4.93; pIC50 (MDBK line; [5]): 4.88"
Cc1ccc2c(C)nc(Nc3nc4c(c(-c5ccccc5)n3)CCCC4)nc2c1 [compound 11777],5.18,1.62,25.87,37.92,13.81,4.97,,
CCCCc1ccc(NC(=S)Nc2ccc(S(=O)(=O)Nc3ccccc3)cc2)cc1 [AD4-12823],,,,,,,,"IC50 ([1]; Homo sapiens): 4.07 µM; ICW assay (EGFR): 30.8167; IC50 (MDBK line; Bos taurus, MDBK): 4.06 µM"
CC(=O)NC(=S)Nc1ccc(S(=O)(=O)N2CCc3ccccc32)cc1 [AD4-10623],,,,,,,46.185,"pIC50 [1, 4]: 4.59; pIC50 (MDBK line; [5]): 4.42"
CCc1ccc(NC(=S)Nc2ccc(S(=O)(=O)Nc3ccc(Cl)c(Cl)c3)cc2)cc1 [AD4-12430],,,,,,,,"IC50 ([1]; Homo sapiens): 4.07 µM; ICW assay (EGFR): 82.0877; IC50 (MDBK line; Bos taurus, MDBK): 5.54 µM"
CN(c1ccccc1)S(=O)(=O)c1ccc(NC(=S)NC(=O)/C=C/c2ccccc2)cc1 [AD4-12168],,,,,,,28.819,"pIC50 [1, 4]: 4.22; MTT Screen, first value of cell ([1]; first value of 'a/b (c)', taken as A431 cells): non- conver- gent; pIC50 (MDBK line; [5]): 4.71"
Cc1ccc2nc(Nc3nc(=O)c(Cc4ccccc4)c(C)[nH]3)nc(C)c2c1 [compound 11294],5.19,3.08,33.47,29.81,37.13,4.70,,
COc1ccc(-c2cc(=O)[nH]c(Nc3nc(C)c4ccc(C)cc4n3)n2)cc1OC [11800 + TFA],5.17,0.87,33.14,34.26,32.02,5.23,,
CCCc1c(C)nc(Nc2nc(C)c3cc(C)cc(C)c3n2)[nH]c1=O [compound 12736],,1.38,43.43,32.35,54.51,,,"pIC50 ([1]; A431 cells, first value of cell, read-out: MTT Assay IC50(A431/MDBK): A431): 5.15; pIC50 (MDBK line; MDBK cells, second value of cell, read-out: MTT Assay IC50(A431/MDBK): MDBK): 5.01"
COc1cccc2c(C)nc(Nc3nc(C)c(C)c(=O)[nH]3)nc12 [compound 12615],5.29,1.16,29.24,31.59,26.88,5.23,,
CCc1ccc2nc(Nc3ncc4c(n3)CC(c3cccc(Cl)c3)CC4=O)nc(C)c2c1 (stereo not drawn) [11680 + TFA],4.66,0.80,27.24,32.59,21.89,4.76,,
Cc1ccc(SCc2cc(=O)[nH]c(Nc3nc(C)c4cccc(C)c4n3)n2)cc1 [11707 + TFA],4.80,,40.51,43.70,37.31,,,"MTT Assay IC50(A431/MDBK): MDBK (MDBK line; MDBK cells, second value of cell): non-convergent"
CCOc1cccc2c(C)nc(Nc3nc(CSc4ccc(C)cc4)cc(=O)[nH]3)nc12 [compound 11755],,,37.09,40.96,33.21,,,"MTT Assay IC50(A431/MDBK): A431 ([1]; A431 cells, first value of cell): non-convergent; pIC50 ([1]; Homo sapiens, A-431, follow-up MTT, A431 cells, first value, read-out: MTT Follow-up: A431): 4.85; MTT Follow-up: ratio in parentheses ([1]; follow-up MTT, ratio MDBK/A431): 0.23; pIC50 (MDBK line; Bos taurus, MDBK, follow-up MTT, MDBK cells, second value, read-out: MTT Follow-up: MDBK): 5.49"
